Test results taken from paper PMC9589054, “One-step synthesized antimicrobial peptide-functionalized gold nanoclusters for selective imaging and killing of pathogenic bacteria” (Frontiers in Microbiology, 2022).
Ends that are not written are not given here.

Columns and labels:
Test in all cases: Plate bactericidal experiment (colony counting)
Type in all cases: cell-based
Details in all cases: 22-712 μg/ml tested
[1] = tested on: Escherichia coli (E. coli) ATCC 25922
Description: (§1) The Escherichia coli (E. coli) ATCC 25922, Staphylococcus aureus (S. aureus) ATCC 25923, and Acinetobacter baumannii (A. baumannii) ATCC 19606 used in our experiments were preserved in our laboratory. Bacteria were cultured in LB liquid medium at 37°C for 8–12 h. Then, the cultures were centrifuged at 4,000 rpm for 5 min and washed three times with PBS. Eventually, the bacterial solutions were diluted to different concentrations for testing (10–1.00 × 10^9 cfu/ml). First, 100 μl of CWR11-AuNC solution was added to an E. coli or S. aureus suspension (1 × 10^5 cfu/ml). After 1 h of incubation, 10 μl of bacterial suspension was inoculated on an LB solid agar plate and placed at 37°C for 24 h before the number of colonies was counted. In addition, different concentrations of CWR11-AuNCs were added to the bacterial suspensions (McFarland turbidity of 0.5) and placed at 37°C for 18–24 h. Bacterial viability was determined by measuring the absorbance at 600 nm.

[2] = tested on: Staphylococcus aureus (S. aureus) ATCC 25923
Description: as §1

[3] = tested on: Acinetobacter baumannii (A. baumannii) ATCC 19606

CWFWKWWRRRRR [CWR11]
significantly reduced the activity: effect on activity of E. coli [1] | effect on activity of S. aureus [2] | effect on activity of A. baumannii [3]
